# Measured values from patent US8232414B2, “Polymorphic form of rotigotine and process for production” (UCB Pharma GmbH, priority 2007, dated 2012).
# How the values were obtained:
# [1] = Solubility in EtOH at room temperature; assay type: physicochemical
# [2] = Thermodynamic stability from DSC (melting point, enthalpy of fusion; Burger-Ramberger rules); assay type: physicochemical; conditions: heating rate 10° C./min, 30° C. to 140° C., Burger-Ramberger rules applied
# Description: Polymorph form (II) of rotigotine can be further characterized and distinguished from form (I) by differential scanning calorimetry (DSC). A DSC thermogram of form (II) is provided in FIG. 5, and was obtained using DSC techniques known to those of skill in the art. One of skill in the art would readily be able to determine the conditions necessary to obtain a DSC thermogram of form (II). A variety of differential scanning calorimeters are available to those of skill in the art and include the Differential Scanning Calorimeter of Mettler Toledo (DSC822e) using temperatures of about 25° C. to about 250° C., in particular about 30° C. to about 140° C. and temperature increases at various rates including 1° C./min, 10° C./min, 20° C./min, among other instruments and conditions. One skilled in the art would recognize that the peak positions in the DSC thermogram can vary depending upon kinetic factors such as, for example, heating rate and particle size. Thermal behavior investigations of rotigotine of polymorphic form (I) (batch 1608726) and of polymorphic form (II) (batch 7769396) were performed on a Mettler Toledo DSC system and on a TA instrument (Q-1000). The analyses were carried out with a heating rate of 10° C./min in pierced aluminum crucibles in a temperature range from 30° C. to 140° C.
Compound,solubility in EtOH [1],thermodynamic stability relative to form (I) [2],thermodynamic stability relative to form (I) ([2]; listed as form (II)),solubility in EtOH relative to polymorphic form (I) ([1]; form (II) versus form (I))
"CCCN(CCc1cccs1)[C@H]1CCc2c(O)cccc2C1 [polymorphic form (I), (−)-5,6,7,8-tetrahydro-6-[propyl-[2-(2-thienyl)ethyl]amino]-1-naphthalenol, reference compound]",about 500 mg/ml,–,–,–
"CCCN(CCc1cccs1)[C@H]1CCc2c(O)cccc2C1 [polymorphic form (II), (−)-5,6,7,8-tetrahydro-6-[propyl-[2-(2-thienyl)ethyl]amino]-1-naphthalenol]",60 to 100 mg/mL,thermodynamically more stable than polymorphic form (I) at all considered temperatures,thermodynamically more stable than form (I) at any temperature considered,at least five times lower
